The nature of this data set: gradient 5% acetonitrile 3 min, to 50% in 2 min, to 85% in 15 min, held 3 min, 100 µL/min. To be noted: column: Zorbax Extend-C18 2.1 x 50 mm; eluents: water / acetonitrile, 0.1% formic acid. The essentials:
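A Zorbax Extend-C18 column (2.1 × 50 mm, 1.8 μm) run at 100 μL/min with water and acetonitrile, both containing 0.1% formic acid, separated mixtures of ~100 pure standards. The HPLC was coupled to a quadrupole time-of-flight mass spectrometer operated in positive and negative ionization mode, with dead and dwell volumes of 40 μL and 900 μL. Each retention time was taken from a computationally picked adduct peak that was then manually inspected.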
`CC(=O)Nc1ccc(C(=O)N2CCC3(CC2)N=C(c2ccc(Cl)cc2)NO3)cc1` yielded an RP-LC retention time of 718 s.

For the compound `COc1ccc(NC(=O)c2[nH]c3cc(C)sc3c2CN2CCOCC2)cc1`, the RP-LC retention time came out at 655 s.

For `CC(=O)N1C[C@@H]2CCCN3CCC[C@@H]([C@H]23)[C@H]1CCCC(=O)NCCN(C)C1CCCCC1`, the RP-LC retention time was determined as 538 s.

With `CCOc1ccc(CNC(=O)C2CCN(S(=O)(=O)c3cn(CC)cn3)CC2)cc1OC`, the RP-LC retention time came out at 676 s.

As to `Cc1ccc(Cl)cc1NC(=O)CSc1cc(N2CCN(c3ccccc3F)CC2)ncn1`, the RP-LC retention time is 1280 s.

`Cc1cc(Cl)ccc1NC(=O)N1CCCC1c1nncn1-c1ccccc1` (centres undefined) registered an RP-LC retention time of 724 s.

The compound `CC(C)CNC(=O)CN1CCN(Cc2cccc(Cl)c2)C1=O` showed an RP-LC retention time of 748 s.

`Cc1cc(C(=O)N2CCN(c3ccccc3F)CC2)n[nH]1` returned an RP-LC retention time of 714 s.

For `CCCn1cc(CCNS(=O)(=O)c2ccc(Cl)c(Cl)c2)c2cccnc21`, the RP-LC retention time came out at 1000 s.

For `COc1cccc(-c2csc(Nc3ccc(Br)cn3)n2)c1`, the RP-LC retention time turned out to be 1170 s.

The compound `COc1ccc([N+](=O)[O-])cc1NC(=O)Cc1ccc(S(C)(=O)=O)cc1` came in with an RP-LC retention time of 695 s.

`CCc1ccc(NC(=O)N2CCc3cn(CC)c4cccc(c34)C2)cc1` displayed an RP-LC retention time of 1060 s.

Compound `O=C1CC(c2noc(-c3cccc(F)c3)n2)CN1c1ccccc1` (centres undefined) yielded an RP-LC retention time of 958 s.

On to `Cc1ccc(S(=O)(=O)CCc2noc(C(=O)NCCCN3CCC(C)CC3)n2)cc1`, for which the RP-LC retention time is 637 s.

`Cc1ccc(-n2c(CN3CCN(C(=O)NC4CCCC4)CC3)nc3cccnc32)cc1` yielded an RP-LC retention time of 663 s.

Turning to `Cc1ccc(C)c(NC(=O)COc2nc(C)nc3ccccc23)c1`, the RP-LC retention time was found to be 754 s.

The compound `CC1=C(c2ccc(Cl)cc2)S(=O)(=O)N=C1N1CCCN(C(=O)NC(C)(C)C)CC1` showed an RP-LC retention time of 871 s.

Compound `C=Cc1ccc(Cn2nc3c(S(=O)(=O)N4CCCCCC4)cccn3c2=O)cc1` showed an RP-LC retention time of 999 s.

Turning to `Cc1ccc(S(=O)(=O)N2CC(=O)N(c3ccccc3F)C(C)(C(=O)NC3CCCC3)C2)cc1` (centres undefined), the RP-LC retention time was determined as 959 s.

On to `Cc1c(S(=O)(=O)N2CCCCC2)c(C)n(C)c1-c1nnc(C2CCC2)o1`, for which the RP-LC retention time stood at 1000 s.

As for `CCCc1nc(-c2c(C)cc(C)nc2NC(=O)c2cc(C)ccc2C)no1`, the RP-LC retention time came out at 946 s.

Compound `CCOC(=O)c1cccc(N2C=C(C#N)S(=O)(=O)c3cc(F)ccc32)c1` yielded an RP-LC retention time of 937 s.

With `COC(=O)C1CCC(=O)N1C(c1ccc(OC)cc1)c1cc(OC)c(OC)c(OC)c1` (centres undefined), the RP-LC retention time amounted to 753 s.

Regarding `O=C(Cn1c(C(F)(F)F)nc2cc3c(cc21)OCCO3)NCc1ccc2c(c1)OCCCO2`, the RP-LC retention time was found to be 818 s.

As to `O=C(c1ccco1)N1CCc2c(c(CO)nn2Cc2ccccc2)C1`, the RP-LC retention time amounted to 657 s.

Regarding `Cc1ccc(CNC(=O)Cn2ncc3c(N4CCN(c5ccccn5)CC4)ncnc32)cc1`, the RP-LC retention time was 615 s.

In the case of `CC1CC(=O)N(Cc2c(F)cccc2Cl)c2ccccc2N1` (centres undefined), the RP-LC retention time is 897 s.

`Cc1ccc(N2N=C(C(=O)N3CCCC3)S(=O)(=O)c3cccnc32)cc1`: the RP-LC retention time was 830 s.

Turning to `Cc1ccc(-n2nc3c(N4CCCC(C(=O)NCCN5CCN(C)CC5)C4)nnc(C)c3c2C)cc1` (centres undefined), the RP-LC retention time came out at 567 s.

Regarding `CCNC(=O)c1c2c(nc3ccc(F)cc13)CCC2`, the RP-LC retention time was determined as 613 s.

For the compound `O=C(CCC1CCCC1)Nc1ccc(-c2nnc3n2CCCC3)cc1`, the RP-LC retention time was 765 s.

`O=C(NC1CCN(c2cc(-c3cccs3)[nH]n2)CC1)c1ccc(Cl)cc1` registered an RP-LC retention time of 749 s.

`CCOc1ccccc1-c1nc(Cc2nc(-c3ccc(OC)cc3)oc2C)no1`: the RP-LC retention time was determined as 1160 s.

Take `CN1C(=O)C(CC(=O)Nc2cccnc2)=C2CCCCC21` (centres undefined): the RP-LC retention time came out at 564 s.

`CC(C)Oc1ccc(-c2noc(-c3nn(-c4ccc(Cl)cc4)ccc3=O)n2)cc1` had an RP-LC retention time of 1060 s.

The compound `CCC(=O)N1CCN(c2nc(C)cc(N3CCOCC3)n2)CC1` returned an RP-LC retention time of 578 s.

The compound `CN(C)CC(=O)N1CC(F)(F)C[C@H]1c1nc(C2CC2)no1` showed an RP-LC retention time of 584 s.

With `Cc1ccc2c(=O)c3c([nH]c2c1C)CCN(CC(=O)Nc1ccc(F)cc1)C3`, the RP-LC retention time is 626 s.

`CCCNC(=O)C1CCN(c2cc(SCC(=O)Nc3cccc(CC)c3)ncn2)CC1` had an RP-LC retention time of 810 s.

Compound `CC1CCN(C(=O)CS(=O)Cc2cnn(-c3ccccc3)c2-n2cccc2)CC1` (centres undefined) displayed an RP-LC retention time of 828 s.

Consider `Cc1ccc(-c2nc(N3CCOCC3)ncc2C(=O)O)cc1`, for which the RP-LC retention time is 770 s.

Turning to `CCCn1ccc2sc(C)c(C(=O)NCCC(C)C)c2c1=O`, the RP-LC retention time amounted to 901 s.

For `Cc1ccc(-n2ncc3c(C)nn(CC(=O)Nc4cc(C)on4)c(=O)c32)c(C)c1`, the RP-LC retention time was determined as 775 s.

`CC1CCN(S(=O)(=O)c2ccccc2-c2nc(-c3ccccc3)no2)CC1` came in with an RP-LC retention time of 1200 s.

As to `COc1ccccc1N1C(=O)CC(N2CCC(C(N)=O)CC2)C1=O` (centres undefined), the RP-LC retention time is 547 s.

Compound `Cc1cccc(NC(=O)C2CCN(S(=O)(=O)c3cccc4nsnc34)CC2)c1C` had an RP-LC retention time of 895 s.

Compound `CCn1nccc1C(=O)N1CCC2(CC1)N=C(c1ccc(C)cc1)NO2` registered an RP-LC retention time of 734 s.

For `COc1ccc(OC)c(CNC(=O)Cn2ccc3ccc(-c4nnc(C)o4)cc32)c1`, the RP-LC retention time worked out at 770 s.

`CC1=C(C(=O)N2CCOCC2)C(c2c(F)cccc2Cl)C2=C(CC(C)(C)CC2=O)N1` (centres undefined): the RP-LC retention time was found to be 690 s.

The compound `CSc1ccc(-c2nc3cnccn3c2Nc2c(C)cccc2C)cc1` showed an RP-LC retention time of 966 s.

Take `COCCn1c(SCC(=O)Nc2nc3ccccc3s2)nc2c(c1=O)SC(C)C2` (centres undefined): the RP-LC retention time was 806 s.

The compound `O=C(NC1CCN(C(=O)c2cn(-c3ccc(Cl)cc3)nn2)CC1)c1cccs1` yielded an RP-LC retention time of 628 s.

`CCCNC(=O)N1CCc2c(c(-c3nc(-c4ccccc4)no3)nn2C)C1`: the RP-LC retention time turned out to be 825 s.

Regarding `COc1cccc(C2CC(c3ccc(C)c(C)c3)=NC3(CCN(C(C)=O)CC3)N2)c1O` (centres undefined), the RP-LC retention time stood at 694 s.

Take `Cc1ccc(-c2nc(C3CC(=O)N(c4ccc(Cl)cc4)C3)no2)cc1` (centres undefined): the RP-LC retention time worked out at 978 s.

`Cc1nc(C)c(-c2ccc(=O)[nH]n2)s1` registered an RP-LC retention time of 558 s.

With `CCCCN(C)C(=O)CSc1ncc(S(=O)(=O)c2cccs2)c(N)n1`, the RP-LC retention time is 749 s.

`O=C(Cn1cccc1-c1nnc(C2CC2)o1)NCc1ccc(Cl)cc1`: the RP-LC retention time was 825 s.

For `CCn1nccc1-c1cccc(-c2noc(CCS(=O)(=O)c3ccc(C)cc3)n2)c1`, the RP-LC retention time turned out to be 993 s.

Compound `CCOC(=O)CSc1nnc(-c2cccnc2)n1-c1ccccc1` displayed an RP-LC retention time of 654 s.

`CCn1ccc2cc(S(=O)(=O)N3CCCC(C(=O)NCCCN4CCCCC4)C3)ccc21` (centres undefined): the RP-LC retention time stood at 676 s.

For `CCOc1cc2c(cc1OCC)C1C(C(=O)NCCCN3CCCC3)c3ccccc3C(=O)N1CC2` (centres undefined), the RP-LC retention time amounted to 624 s.

As for `CCn1c(N2CCCC(C(=O)NCc3ccc(OC)cc3OC)C2)cc(=O)n(C)c1=O` (centres undefined), the RP-LC retention time came out at 752 s.

With `Cc1ccc(-c2nc3nc(C)cc(N(CCO)Cc4ccccc4)n3n2)cc1`, the RP-LC retention time came to 815 s.

As for `Cc1ccnc(N2CCCC(C(=O)N3CCC(Cc4ccccc4)CC3)C2)n1` (centres undefined), the RP-LC retention time was found to be 987 s.

`CCN(CC)c1ccc(-c2noc(CN3CCC(C)CC3)n2)cn1` registered an RP-LC retention time of 593 s.

In the case of `O=C(Nc1ccc(OCC(=O)N2CCCN(c3ncccn3)CC2)nc1)C1CC1`, the RP-LC retention time was 612 s.

For the compound `CCOCCCNC(=O)Nc1ccc2c(c1)CCN2S(=O)(=O)c1ccccc1`, the RP-LC retention time stood at 803 s.

The compound `CCCOc1ccc(C(=O)Nc2nnc(C3CC(=O)N(c4ccc(Cl)cc4)C3)o2)cc1` (centres undefined) returned an RP-LC retention time of 909 s.

As for `O=[N+]([O-])c1c(-c2nc3ccc(Cl)cn3c2Nc2ccc(Cl)cc2)ccc2c1OCO2`, the RP-LC retention time stood at 1000 s.

In turn, `Cc1ccc(NS(=O)(=O)c2c(C)sc(C)c2-c2cc(C(F)(F)F)on2)c(C)c1` came in with an RP-LC retention time of 1240 s.

`O=C(NCc1ccccn1)C1CCc2sc(C(=O)N3CCCCC3)cc2C1` (centres undefined) yielded an RP-LC retention time of 506 s.

The compound `Cc1nn(-c2ccc(F)cc2)c2nc(N3CCCC(C(=O)NCc4ccc(F)cc4)C3)sc12` (centres undefined) displayed an RP-LC retention time of 1110 s.

`O=C(NCc1ccccc1)c1ccc2c(c1)Sc1ncccc1C(=O)N2C1CC1` gave an RP-LC retention time of 640 s.

In turn, `CCC1Oc2ccc(S(=O)(=O)N3CCC(C(=O)NCc4ccccc4OC)CC3)cc2NC1=O` (centres undefined) had an RP-LC retention time of 839 s.

Take `Cc1cccc(N2C(=O)CN(Cc3ccccc3C)[C@H]3CS(=O)(=O)C[C@H]32)c1`: the RP-LC retention time amounted to 872 s.

In turn, `Cc1cc(C)n(Cc2nc(-c3ccc(NC(=O)Cc4ccc(F)cc4)cc3)oc2C)n1` gave an RP-LC retention time of 917 s.

Consider `Cc1ccc(NS(=O)(=O)c2cc(-c3[nH]ncc3C(=O)N(C)C)oc2C)cc1Cl`, for which the RP-LC retention time was 730 s.

`CCOC(=O)N1CCN(c2ncc(S(=O)(=O)c3ccc(C)c(C)c3)c(N)n2)CC1` came in with an RP-LC retention time of 891 s.

(Values after the METLIN SMRT retention time set (Domingo-Almenara et al. 2019).)
